In patent publication US11071317B2, “Sweetness enhancement” (Givaudan, S.A., priority 2015, dated 2021):
Values joined by “and” are separate entries in the source; they are usually repeats but may differ in a detail not shown here. Equal entries are not always repeated.

How the values were obtained:
Type in all cases: in vivo
[1] = test system: sweet sensitive panelists; experiment: Ranking of 4% cellobiose against sucrose standards (1% and 1.5%) in water for overall sweetness intensity, r-index analysis
From the text: 20 sweet sensitive panelists ranked 4% cellobiose and sucrose standards (1% and 1.5%) for overall sweetness intensity over 2 replications for a total of 40 observations.

[2] = test system: sweet sensitive panelists; experiment: Ranking of 5% sucrose+4% cellobiose against sucrose standards (6%, 7% and 8%) in water for overall sweetness intensity, r-index analysis; details: 4% cellobiose in combination with 5% sucrose
From the text: 20 sweet sensitive panelists rank ranked 5% sucrose+4% cellobiose and sucrose standards (6%, 7% and 8%) in water for overall sweetness intensity over 2 replications for a total of 40 observations. […] The expected sucrose equivalence (SE) of 4% cellobiose on top of 5% sucrose would be 6.25% (1.25%+5%) but the perceived SE was 7%, showing true sweetness enhancement.

trained panelists = experiment: Descriptor scoring (overall, upfront, delayed, lingering sweet; 100-point scale) of 80 ppm Reb-A in water with 4% cellobiose
Experimental: The test was carried out by a panel of 14 trained panelists. The panelists scored 4 descriptors (overall sweet, upfront sweet, delayed sweet and lingering sweet) on a 100-point scale over 4 replications for a total of […].

expert tasters [3] = experiment: Expert taster comparison, model beverage: water, 200 ppm sucralose, 2% cellobiose vs base
Experimental: Samples were evaluated by a panel of 7 expert tasters. Tasters were asked to compare the base (200 ppm of sucralose) with the model beverage (water, 200 ppm of sucralose, 2% cellobiose) focusing on the overall quality of sweetness, particularly on the enhancement of the upfront sweetness, overall sweetness intensity.

expert tasters [4] = experiment: Expert taster comparison, model beverage: water, 95 ppm sucralose, 2% cellobiose vs base
Experimental: Samples were evaluated by a panel of 8 expert tasters. Tasters were asked to compare the base (95 ppm of sucralose) with the model beverage (water, 95 ppm of sucralose, 2% cellobiose) focusing on the overall quality of sweetness, particularly on the enhancement of the upfront sweetness, overall sweetness intensity.

expert tasters [5] = experiment: Expert taster comparison, model beverage: water, 5% sucrose, 0.1% cellobiose vs base
Experimental: Samples were evaluated by a panel of 9 expert tasters. Tasters were asked to compare the base (water with 5% of sucrose) with the model beverage (water, 5% of sucrose, and 0.1% cellobiose) focusing on the overall quality of sweetness, particularly on the enhancement of the upfront sweetness, overall sweetness intensity.

expert tasters [6] = experiment: Expert taster comparison, model beverage: water, 5% sucrose, 2% cellobiose vs base
Experimental: Samples were evaluated by a panel of 13 expert tasters. Tasters were asked to compare the base (water with 5% of sucrose) with the model beverage (water, 5% of sucrose, and 2% cellobiose) focusing on the overall quality of sweetness, particularly on the enhancement of the upfront sweetness, overall sweetness intensity.

expert tasters [7] = experiment: Expert taster comparison, model beverage: water, 7% sucrose, 2% cellobiose vs base
Experimental: Samples were evaluated by a panel of 6 expert tasters. Tasters were asked to compare the base (water with 7% of sucrose) with the model beverage (water, 7% of sucrose, and 2% cellobiose) focusing on the overall quality of sweetness, particularly on the enhancement of the upfront sweetness, overall sweetness intensity.

expert tasters [8] = experiment: Expert taster comparison, lemon lime beverage (water, sodium benzoate, 90 ppm sucralose, citric acid) with 4% cellobiose vs base; details: 2000 ppm sodium benzoate, 500 ppm citric acid, 850 ppm lemon lime flavor
Experimental: Samples were evaluated by a panel of 6 expert tasters. Tasters were asked to compare the base (water, 2000 ppm sodium benzoate, 90 ppm sucralose, 500 ppm citric acid, 850 ppm lemon lime flavor) with the model beverage (water, 2000 ppm sodium benzoate, 90 ppm sucralose, 500 ppm citric acid, 850 ppm lemon lime flavor, 4% cellobiose) focusing on the overall quality of sweetness, particularly on the enhancement of the upfront sweetness, overall sweetness intensity.

expert tasters [9] = experiment: Expert taster comparison, carbonated lemon lime beverage (sodium benzoate, 90 ppm Sucralose, citric acid) with 4% cellobiose vs base; details: carbonated water, 2000 ppm sodium benzoate, 500 ppm citric acid, 850 ppm lemon lime flavor
Experimental: Samples were evaluated by a panel of 7 expert tasters. Tasters were asked to compare the base (carbonated water, 2000 ppm sodium benzoate, 90 ppm Sucralose, 500 ppm citric acid, 850 ppm lemon lime flavor) with the model beverage (water, 2000 ppm sodium benzoate, 90 ppm Sucralose, 500 ppm citric acid, 850 ppm lemon lime flavor, 4% cellobiose) focusing on the overall quality of sweetness, particularly on the enhancement of the upfront sweetness, overall sweetness intensity.

expert tasters [10] = experiment: Expert taster comparison, lemon lime beverage (water, sodium benzoate, 180 ppm Reb-A, citric acid) with 4% cellobiose vs base, panel of 7 (Example 11); details: 2000 ppm sodium benzoate, 500 ppm citric acid, 850 ppm lemon lime flavor
Experimental: Samples were evaluated by a panel of 7 expert tasters. Tasters were asked to compare the base (water, 2000 ppm sodium benzoate, 180 ppm Reb-A, 500 ppm citric acid, 850 ppm lemon lime flavor) with the model beverage (water, 2000 ppm sodium Benzoate, 180 ppm Reb-A, 500 ppm citric acid, 850 ppm lemon lime flavor, 4% cellobiose) focusing on the overall quality of sweetness, particularly on the enhancement of the upfront sweetness, overall sweetness intensity.

expert tasters [11] = experiment: Expert taster comparison, lemon lime beverage (water, sodium benzoate, 180 ppm Reb-A, citric acid) with 4% cellobiose vs base, panel of 8 (Example 12); details: 2000 ppm sodium benzoate, 500 ppm citric acid, 850 ppm lemon lime flavor
Experimental: Samples were evaluated by a panel of 8 expert tasters. Tasters were asked to compare the base (water, 2000 ppm sodium benzoate, 180 ppm Reb-A, 500 ppm citric acid, 850 ppm lemon lime flavor) with the model beverage (water, 2000 ppm sodium Benzoate, 180 ppm Reb-A, 500 ppm citric acid, 850 ppm lemon lime flavor, 4% cellobiose) focusing on the overall quality of sweetness, particularly on the enhancement of the upfront sweetness, overall sweetness intensity.

expert tasters [12] = experiment: Expert taster comparison, plain zero-fat yoghurt with 180 ppm RebA and 4% cellobiose vs base; details: 180 ppm RebA
Experimental: Yoghurt RebA 180 ppm+4% cellobiose
In a plain zero-fat yoghurt, sweetened with rebaudioside A (180 ppm), cellobiose was tested at 4% for sweetness enhancement. Samples were evaluated by a panel of 6 expert tasters. Tasters were asked to compare the base (plain yoghurt+180 ppm RebA) with the model yoghurt (plain yoghurt, 180 ppm RebA 4% cellobiose) focusing on the overall quality of sweetness.

expert tasters [13] = experiment: Expert taster comparison, plain zero-fat yoghurt with 90 ppm sucralose and 4% cellobiose vs base; details: 90 ppm sucralose
Experimental: In a plain zero-fat yoghurt, sweetened with sucralose (90 ppm), cellobiose was tested at 4% for sweetness enhancement. Samples were evaluated by a panel of 6 expert tasters. Tasters were asked to compare the base (plain yoghurt+90 ppm sucralose) with the model yoghurt (plain yoghurt, 90 ppm sucralose, 4% cellobiose) focusing on the overall quality of sweetness.

[14] = Sweetness and mouthfeel equivalence of sucrose + cellobiose solutions to sucrose solutions (general statement)
[15] = 4% cellobiose added to 80 ppm Reb-A in water, vs unaltered 80 ppm Reb-A base

In the case of `OC[C@H]1O[C@@H](O[C@H]2[C@H](O)[C@@H](O)C(O)O[C@@H]2CO)[C@H](O)[C@@H](O)[C@@H]1O` (mixture of isomers) [cellobiose], the “sweetness rated as sweet as sucrose” value ([1]; 4% cellobiose) is reported as 1.25 % sucrose, the “inherent sweetness on its own” value ([1]; 4% cellobiose in water) is reported as “not inherently sweet” and the “overall sweetness intensity relative to sucrose standards” value ([1]; 4% cellobiose in water, r-index analysis, 95% confidence level, p-value<0.05) is reported as < 1.5 % sucrose and > 1.0 % sucrose. The sweetness enhancement [2] was “sweetness enhancement beyond an additive effect”, the delayed sweetness (trained panelists; [15]) was “significantly decreased” and the lingering sweetness (trained panelists; [15]) was “significantly decreased”. The overall sweetness (trained panelists; [15]) was “significantly increased”, the upfront sweetness (trained panelists; [15]) was “significantly increased” and the upfront sweetness (trained panelists; 80 ppm Reb-A and 4% cellobiose, vs isosweet 150 ppm Reb-A sample) was “significantly increased”. For the same compound, the “Reb-A aqueous solution of the same sweetness” value (trained panelists; aqueous solution of 80 ppm Reb-A and 4% cellobiose) was 150 ppm Reb-A, the mouthfeel (expert tasters [3]) was “better mouthfeel” and the offnotes (expert tasters [3]) was “decreased offnotes”. For the same compound, the profile (expert tasters [3]) was “rounded profile”, the sweetness enhancement (expert tasters [3]) was “significant sweetness enhancement” and the upfront sweetness enhancement (expert tasters [3]) was “upfront sweetness enhancement”. For the same compound, the mouthfeel (expert tasters [4]) was “better mouthfeel”, the offnotes (expert tasters [4]) was “decreased offnotes” and the profile (expert tasters [4]) was “rounded profile”. The sweetness enhancement (expert tasters [4]) was “significant sweetness enhancement”, the upfront sweetness enhancement (expert tasters [4]) was “upfront sweetness enhancement” and the profile (expert tasters [5]) was “rounded profile”. The sweetness enhancement (expert tasters [5]) was “significant sweetness enhancement”, the mouthfeel (expert tasters [6]) was “better mouthfeel” and the profile (expert tasters [6]) was “rounded profile”. For the same compound, the sweetness enhancement (expert tasters [6]) was “significant sweetness enhancement”, the upfront sweetness enhancement (expert tasters [6]) was “upfront sweetness enhancement” and the profile (expert tasters [7]) was “rounded profile”. For the same compound, the sweetness enhancement (expert tasters [7]) was “significant sweetness enhancement”, the upfront sweetness enhancement (expert tasters [7]) was “upfront sweetness enhancement” and the aroma profile (expert tasters [8]) was “rounded aroma profile”. For the same compound, the sweetness enhancement (expert tasters [8]) was “significant sweetness enhancement”, the upfront sweetness enhancement (expert tasters [8]) was “upfront sweetness enhancement” and the aroma profile (expert tasters [9]) was “rounded aroma profile”. The mouthfeel (expert tasters [9]) was “improved mouthfeel”, the sweetness enhancement (expert tasters [9]) was “significant sweetness enhancement” and the upfront sweetness enhancement (expert tasters [9]) was “upfront sweetness enhancement”. The aroma profile (expert tasters [10]) was “rounded aroma profile”, the mouthfeel (expert tasters [10]) was “improved mouthfeel” and the sweetness enhancement (expert tasters [10]) was “significant sweetness enhancement”. The upfront sweetness enhancement (expert tasters [10]) was “upfront sweetness enhancement”, the aroma profile (expert tasters [11]) was “rounded aroma profile” and the mouthfeel (expert tasters [11]) was “improved mouthfeel”. The sweetness enhancement (expert tasters [11]) was “significant sweetness enhancement”, the upfront sweetness enhancement (expert tasters [11]) was “upfront sweetness enhancement” and the “overall balance and quality of sweetness” value (expert tasters [12]) was “significantly better overall balance and quality of sweetness”. For the same compound, the sweetness (expert tasters [12]) was “much sweeter”, the “balance and quality of sweetness” value (expert tasters [13]) was “significantly improved balance and quality of sweetness” and the sweetness (expert tasters [13]) was “much sweeter”. The “sucrose solution of similar sweetness and mouthfeel characteristics” value ([14]; solution of 2% sucrose and 4% cellobiose) was about 4 % sucrose, the “sucrose solution of very similar taste” value ([14]; solution of 5% sucrose+4% cellobiose) was about 7 % sucrose and the “sucrose solution of very similar taste” value ([14]; solution of 7% sucrose+4% cellobiose) was about 9 % sucrose.
